ChEMBL document CHEMBL4184082 (Bioorg Med Chem Lett, 2018)
Values after ≈ are worked out from the molar mass of the structure shown.

Assays:
[1] = AUC (0 to last) in rat at 100 mg/kg; format: ADME, organism-based; parameters: dose 100 mg/kg, time 0 - last; conditions: in vivo
[2] = AUC (0 to last) in rat at 300 mg/kg; format: ADME, organism-based; parameters: dose 300 mg/kg, time 0 - last; conditions: in vivo
[3] = Thermodynamic solubility of the compound; format: physicochemical; conditions: read-out: Therm_solubility
Mus musculus = assay: Reversal of thermal injury-induced muscle damage in C57BL/6 mouse assessed as reduction in Evans blue dye retention time at 10 mg/kg, po administered once daily via gavage treated for 10 days prior to thermal injury on day 4 and subsequent Evans blue dye injection on day 8 measured on day 9 post last dose relative to control; format: functional; parameters: scale not given: the % may be the effect or the level left
Rattus norvegicus [4] = assay: Tumorigenic activity in rat assessed as effect on cell proliferation in non-glandular stomach at 30 mg/kg administered for 14 days measured on post last dose by Ki-67 staining based histopathological analysis relative to control; format: ADME, organism-based; conditions: in vivo, 336 h
Rattus norvegicus [5] = assay: Tumorigenic activity in rat assessed as effect on cell proliferation in non-glandular stomach at 100 mg/kg administered for 14 days measured on post last dose by Ki-67 staining based histopathological analysis relative to control; format: ADME, organism-based; conditions: in vivo, 336 h
Rattus norvegicus [6] = assay: Tumorigenic activity in rat assessed as effect on cell proliferation in non-glandular stomach at 300 mg/kg administered for 6 days and subsequent treatment at 200 mg/kg for 3 days measured on post last dose by Ki-67 staining based histopathological analysis relative to control; format: ADME, organism-based; conditions: in vivo
Rattus norvegicus [7] = assay: Toxicity in rat assessed as reduction in body weight at 300 mg/kg administered for 6 days; format: organism-based; conditions: in vivo, 144 h
Rattus norvegicus [8] = assay: Toxicity in rat assessed as effect on food intake at 300 mg/kg administered for 6 days; format: organism-based; conditions: in vivo, 144 h
[9] = AUC (0 to last) in rat at 30 mg/kg; format: ADME, organism-based; parameters: dose 30 mg/kg, time 0 - last; conditions: in vivo
[10] = AUC (0 to last) in rat at 300 mg/kg measured on day 8; format: ADME, organism-based; parameters: dose 300 mg/kg, time 0 - last; conditions: in vivo

Row | AUC(0-t) [1] [µg·h/mL] | AUC(0-t) [2] [µg·h/mL] | solubility thermodynamic [3] [µM] | AUC(0-t) [9] [µg·h/mL] | AUC(0-t) [10] [µg·h/mL] | SMILES | Activity (Mus musculus) [%] | Activity (Rattus norvegicus [4]) [%] | Activity (Rattus norvegicus [5]) [%] | Activity (Rattus norvegicus [6]) [%] | Activity (Rattus norvegicus [7]) | Activity (Rattus norvegicus [8])
1 | 48 | 201 | – | – | – | C/C(=C\COc1ccccc1CN(C)C(=O)c1ccc(-c2ccco2)cc1)CCC(=O)O | – | – | – | – | – | –
2 | 613 | – | 250 (≈ 113 µg/mL) | 72 | 2270 | Cc1cc(SCc2sc(-c3ccc(C(F)(F)F)cc3)nc2C)ccc1OCC(=O)O [GW501516] | 48 | 34 | 81 | 190 | Toxic | Toxic
